Reference: article PMC11299231 (Steroids, 2024)
Where two headings read alike, the source gives them in different places.

What was measured:
PC3 (AR-) = test: Antiproliferative activity assay; format: cell-based, human; details: for IC50: 48 h, read-out: IC50 ± SEM, PC3 (AR−)
DU145 (AR-) = test: Antiproliferative activity assay; format: cell-based, human; details: for IC50: read-out: IC50 ± SEM, DU145 (AR−)
HaCaT = test: Antiproliferative activity assay; format: cell-based, human; details: for IC50: 48 h, read-out: IC50 ± SEM, HaCaT
M21 = test: Antiproliferative activity assay; format: cell-based, human; details: read-out: IC50 ± SEM, M21
T84 wt = test: Antiproliferative activity assay; format: cell-based, human; details: for IC50: 48 h, read-out: IC50 ± SEM, T84 wt
MCF7 (ER + ) = test: Antiproliferative activity assay; format: cell-based, human; details: read-out: IC50 ± SEM, MCF7 (ER + )
HT-29 = test: Antiproliferative activity assay; format: cell-based, human; details: read-out: IC50 ± SEM, HT-29
MDA-MB-231 (ER-) = test: Antiproliferative activity assay; format: cell-based, human; details: read-out: IC50 ± SEM, MDA-MB-231 (ER−)
LNCaP (AR + ) = test: Antiproliferative activity assay; format: cell-based, human; details: read-out: IC50 ± SEM, LNCaP (AR + ); prostate adenocarcinoma cells, 48 h, SRB
CYP3A4 [1] = target: T1, CYP3A4 (Homo sapiens, UniProt P08684); details: Soret band blue shift, recombinant CYP3A4
T1 sequence (P08684 whole entry): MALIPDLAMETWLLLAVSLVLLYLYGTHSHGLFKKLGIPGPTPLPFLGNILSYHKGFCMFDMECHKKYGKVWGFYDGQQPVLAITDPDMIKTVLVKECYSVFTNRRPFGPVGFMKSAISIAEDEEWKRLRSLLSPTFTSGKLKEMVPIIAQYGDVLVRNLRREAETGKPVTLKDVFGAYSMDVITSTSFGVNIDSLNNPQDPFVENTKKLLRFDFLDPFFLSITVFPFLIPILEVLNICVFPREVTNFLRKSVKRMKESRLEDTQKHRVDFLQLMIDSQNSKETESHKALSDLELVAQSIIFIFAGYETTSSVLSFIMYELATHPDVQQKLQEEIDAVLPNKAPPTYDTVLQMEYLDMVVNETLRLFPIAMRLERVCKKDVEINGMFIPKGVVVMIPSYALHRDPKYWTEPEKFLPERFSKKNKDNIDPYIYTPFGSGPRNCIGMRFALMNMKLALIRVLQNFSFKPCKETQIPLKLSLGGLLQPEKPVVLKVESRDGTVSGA

CYP3A4 [2] = target: T1, CYP3A4; details: read-out: IC50, BFC debenzylation activity of CYP3A4; soluble reconstituted system, 37 °C, BFC substrate
[3] = at the maximum concentration tested (5 μM)
[4] = at the maximal concentration tested (5 μM)
[5] = breast carcinoma cells, 48 h, SRB

Structure (SMILES): CC/C(=C(\c1ccc(O)cc1)c1ccc(OCCN(C)C)cc1)c1ccccc1 [Compound 4-OHT, 4-hydroxytamoxifen, reference compound]
- IC50 (PC3 (AR-); Homo sapiens, PC3/AR): 13 ± 1 µM
- IC50 (DU145 (AR-); Homo sapiens, DU-145, 48 h): 13 ± 1 µM
- IC50 (HaCaT; Homo sapiens, HaCaT): 10.4 ± 0.6 µM
- IC50 (M21; Homo sapiens, M21, 48 h): 4.2 ± 0.2 µM
- IC50 (T84 wt; Homo sapiens): 6.9 ± 0.3 µM
- IC50 (MCF7 (ER + ); Homo sapiens, MCF7, 48 h): 0.013 ± 0.005 µM
- IC50 (HT-29; Homo sapiens, HT-29, 48 h): 0.9 ± 0.2 µM
- IC50 (MDA-MB-231 (ER-); Homo sapiens, MDA-MB-231, 48 h): 7 ± 1 µM

Structure (SMILES): CC(O)(CS(=O)(=O)c1ccc(F)cc1)C(=O)Nc1ccc(C#N)c(C(F)(F)F)c1 (centres unmarked) [Bicalutamide, bicalutamide, reference compound]
- IC50 (PC3 (AR-); Homo sapiens, PC3/AR): 62 ± 3 µM
- IC50 (DU145 (AR-); Homo sapiens, DU-145, 48 h): 52 ± 1 µM
- IC50 (HaCaT; Homo sapiens, HaCaT): 95 ± 5 µM
- IC50 (M21; Homo sapiens, M21, 48 h): 49 ± 1 µM
- IC50 (T84 wt; Homo sapiens): 56 ± 2 µM
- IC50 (HT-29; Homo sapiens, HT-29, 48 h): 42 ± 2 µM

Structure (SMILES): C[C@]12CC[C@H]3[C@@H]([C@H](C/C=C/Cn4cc([C@]5(O)CC[C@H]6[C@@H]7CCc8cc(O)ccc8[C@H]7CC[C@@]65C)nn4)CC4=CC(=O)CC[C@@]43C)[C@@H]1CC[C@@H]2O [Compound 1, (E)-17β-hydroxy-7α-{4-[4-(estradiol-17α-yl)-[1,2,3]triazol-1-yl]-but-2-enyl}−4-androsten-3-one]
- antiproliferative effect on PC3 (AR-) cells (PC3 (AR-); [3]): no effect
- IC50 (PC3 (AR-); prostate adenocarcinoma cells, SRB): > 5 µM
- IC50 (LNCaP (AR + )): > 5 µM
- antiproliferative effect on DU145 (AR-) cells (DU145 (AR-); [3]): no effect
- IC50 (DU145 (AR-); prostate adenocarcinoma cells, 48 h, SRB): > 5 µM
- antiproliferative activity on HaCaT cells (HaCaT; [4]): inactive
- IC50 (HaCaT; normal immortalized human keratinocytes, SRB): > 5 µM
- IC50 (M21; melanoma cells, 48 h, SRB): 2.3 ± 0.1 µM
- antiproliferative activity on T84 wt cells (T84 wt; [4]): inactive
- IC50 (T84 wt; colon adenocarcinoma cells, SRB): > 5 µM
- IC50 (MCF7 (ER + ); [5]): 4.9 ± 0.4 µM
- IC50 (HT-29; colon carcinoma cells, 48 h, SRB): 3.5 ± 0.1 µM
- high-spin shift (CYP3A4 [1]): 23%
- IC50 (MDA-MB-231 (ER-); [5]): > 5 µM
- IC50 (CYP3A4 [2]): > 5 µM
